Laboratory results reported in the supplement of paper PMC11208160.

Assay: recombinant UMI read abundance after kanamycin selection (control-corrected) (log10(CPM+1)); higher = more efficient recombination; extreme values may be limits of the assay; sequences stand for … in AGTGCAGAGAAAATCGGCCAGTTTTCTCTGCCTGCAGTCCGCATGCCGTGGGACCCCTTGGGTTCTAACCTGTTGCCTAGATTTATGCAGCGGACTGCCTTTCTCCCAAAGTGATAAACCGG…AGGTTGGTTTCACT; site = the 11-nt donor
How it was run: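 Each donor and donor-binding-loop pair was tracked by a 12-nt UMI on a plasmid carrying a promoterless kanamycin gene. With a second plasmid supplying a fixed target and T7-inducible IS621 bridge recombinase, the pool was plated in Escherichia coli on IPTG (0.07 mM) plus kanamycin or unselected. Sequencing of recombinant UMIs across the donor–target junction gave counts expressed as log10(CPM+1) after replicate averaging and control-derived scaling.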
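Further: IS621 bridge recombinase in Escherichia coli cells against a fixed T5 target plasmid.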

Sequence	recombinant UMI read abundance (log10)
CACGGTCCATGGACCGGTTTTCCCGGTAATCCGTATTTGCA (site CGCGGTCCTTG)	0
CACGGTCCATGGACCGGTTTTCCCGGTAATCCGTATTTGCA (site CTCGGTCCTTG)	0
CACGGTCCATGGACCGGTTTTCCCGGTAATCCGTATTTGTT (site CACGGACCTAA)	0.00385
CACGGTCCATGGACCGGTTTTCCCGGTAATCCGTATTTGTT (site CACGGCCCTAA)	0.18
CACGGTCCATGGACCGGTTTTCCCGGTAATCCGTATTTGTT (site CACGGGCCTAA)	0.00486
CACGGTCCATGGACCGGTTTTCCCGGTAATCCGTATTTGTT (site CACGGTCCTAA)	1.4
CACGTACCATGGACCGGTTTTCCCGGTAATCCGTATTTGCT (site CACGTACCTAG)	0.0043
CACTACTCATGGACCGGTTTTCCCGGTAATCCGTATTTGCC (site CACTACTCTGG)	2.55
CACTACTCATGGACCGGTTTTCCCGGTAATCCGTATTTGCC (site CACTCCTCTGG)	0.801
CACTACTCATGGACCGGTTTTCCCGGTAATCCGTATTTGCC (site CACTGCTCTGG)	0.737
CACTACTCATGGACCGGTTTTCCCGGTAATCCGTATTTGCC (site CACTTCTCTGG)	0
CACTAGGCATGGACCGGTTTTCCCGGTAATCCGTATTTGGA (site CACTAGGCTTC)	0.727
CACTAGGCATGGACCGGTTTTCCCGGTAATCCGTATTTGGA (site CACTCGGCTTC)	0.0143
CACTAGGCATGGACCGGTTTTCCCGGTAATCCGTATTTGGA (site CACTGGGCTTC)	0.0136
CACTAGGCATGGACCGGTTTTCCCGGTAATCCGTATTTGGA (site CACTTGGCTTC)	0.0198
CACTATGCATGGACCGGTTTTCCCGGTAATCCGTATTTGCG (site CACTATGCTCG)	1.67
CACTCCCCATGGACCGGTTTTCCCGGTAATCCGTATTTGAC (site CACTCCCCTGT)	1.54
CACTCCTCATGGACCGGTTTTCCCGGTAATCCGTATTTGAC (site CACTCCTCTGA)	2.16
CACTCCTCATGGACCGGTTTTCCCGGTAATCCGTATTTGAC (site CACTCCTCTGC)	1.9
CACTCCTCATGGACCGGTTTTCCCGGTAATCCGTATTTGAC (site CACTCCTCTGG)	1.55
CACTCCTCATGGACCGGTTTTCCCGGTAATCCGTATTTGAC (site CACTCCTCTGT)	3.09
CACTCGACATGGACCGGTTTTCCCGGTAATCCGTATTTGGG (site CAATCGACTCC)	0.0326
CACTCGACATGGACCGGTTTTCCCGGTAATCCGTATTTGGG (site CACTCGACTCC)	0.2
CACTCGACATGGACCGGTTTTCCCGGTAATCCGTATTTGGG (site CAGTCGACTCC)	0
CACTCGACATGGACCGGTTTTCCCGGTAATCCGTATTTGGG (site CATTCGACTCC)	0.0164

Sequence	recombinant UMI read abundance (log10)
CACTGCCCATGGACCGGTTTTCCCGGTAATCCGTATTTGTT (site CACAGCCCTAA)	0.0209
CACTGCCCATGGACCGGTTTTCCCGGTAATCCGTATTTGTT (site CACCGCCCTAA)	0.287
CACTGCCCATGGACCGGTTTTCCCGGTAATCCGTATTTGTT (site CACGGCCCTAA)	0.0106
CACTGCCCATGGACCGGTTTTCCCGGTAATCCGTATTTGTT (site CACTGCCCTAA)	0.276
CACTGCTCATGGACCGGTTTTCCCGGTAATCCGTATTTGAA (site CAATGCTCTTT)	0.0153
CACTGCTCATGGACCGGTTTTCCCGGTAATCCGTATTTGAA (site CACTGCTCTTT)	2.09
CACTGCTCATGGACCGGTTTTCCCGGTAATCCGTATTTGAA (site CAGTGCTCTTT)	0.00554
CACTGCTCATGGACCGGTTTTCCCGGTAATCCGTATTTGAA (site CATTGCTCTTT)	0.0128
CACTGGACATGGACCGGTTTTCCCGGTAATCCGTATTTGGT (site CACTGGACTAC)	1.24
CAGAAAACATGGACCGGTTTTCCCGGTAATCCGTATTTGGG (site CAGAAAACTCC)	0.991
CAGACATCATGGACCGGTTTTCCCGGTAATCCGTATTTGCT (site CAGACATCTAG)	2.46
CAGACATCATGGACCGGTTTTCCCGGTAATCCGTATTTGCT (site CCGACATCTAG)	1.06
CAGACATCATGGACCGGTTTTCCCGGTAATCCGTATTTGCT (site CGGACATCTAG)	1.16
CAGACATCATGGACCGGTTTTCCCGGTAATCCGTATTTGCT (site CTGACATCTAG)	1.42
CAGACCGCATGGACCGGTTTTCCCGGTAATCCGTATTTGAT (site CAGACCGCTAT)	2.7
CAGACGCCATGGACCGGTTTTCCCGGTAATCCGTATTTGAC (site CAGACGCCTGT)	1.91
CAGACGGCATGGACCGGTTTTCCCGGTAATCCGTATTTGGG (site CAGACGGCTCC)	0.191
CAGAGAGCATGGACCGGTTTTCCCGGTAATCCGTATTTGTA (site CAGAGAGCTTA)	2.94
CAGCACGCATGGACCGGTTTTCCCGGTAATCCGTATTTGGT (site CAGCACGCTAC)	1.61
CAGCCCACATGGACCGGTTTTCCCGGTAATCCGTATTTGAA (site CAGCCCACTTT)	1.15
CAGCTATCATGGACCGGTTTTCCCGGTAATCCGTATTTGTC (site CAGCTATCTGA)	3.3
CAGGAGTCATGGACCGGTTTTCCCGGTAATCCGTATTTGCC (site CAGGAGTCTGG)	3.4
CAGGAGTCATGGACCGGTTTTCCCGGTAATCCGTATTTGCC (site CCGGAGTCTGG)	0
CAGGAGTCATGGACCGGTTTTCCCGGTAATCCGTATTTGCC (site CGGGAGTCTGG)	0
CAGGAGTCATGGACCGGTTTTCCCGGTAATCCGTATTTGCC (site CTGGAGTCTGG)	1.73

Sequence	recombinant UMI read abundance (log10)
CAGGCAGCATGGACCGGTTTTCCCGGTAATCCGTATTTGCT (site CAAGCAGCTAG)	1.66
CAGGCAGCATGGACCGGTTTTCCCGGTAATCCGTATTTGCT (site CACGCAGCTAG)	0
CAGGCAGCATGGACCGGTTTTCCCGGTAATCCGTATTTGCT (site CAGGCAGCTAG)	1.92
CAGGCAGCATGGACCGGTTTTCCCGGTAATCCGTATTTGCT (site CATGCAGCTAG)	0
CAGGCGACATGGACCGGTTTTCCCGGTAATCCGTATTTGGG (site CAGACGACTCC)	0.0355
CAGGCGACATGGACCGGTTTTCCCGGTAATCCGTATTTGGG (site CAGCCGACTCC)	0.0323
CAGGCGACATGGACCGGTTTTCCCGGTAATCCGTATTTGGG (site CAGGCGACTCC)	0.209
CAGGCGACATGGACCGGTTTTCCCGGTAATCCGTATTTGGG (site CAGTCGACTCC)	0.0086
CAGGGCACATGGACCGGTTTTCCCGGTAATCCGTATTTGGA (site CAGGGCACTTC)	0.471
CAGGTCGCATGGACCGGTTTTCCCGGTAATCCGTATTTGAT (site CAGGTCGCTAT)	2.33
CAGTCAACATGGACCGGTTTTCCCGGTAATCCGTATTTGGG (site CAGTCAACTCC)	0.146
CAGTCAACATGGACCGGTTTTCCCGGTAATCCGTATTTGGG (site CAGTCCACTCC)	0.018
CAGTCAACATGGACCGGTTTTCCCGGTAATCCGTATTTGGG (site CAGTCGACTCC)	0.0226
CAGTCAACATGGACCGGTTTTCCCGGTAATCCGTATTTGGG (site CAGTCTACTCC)	0.0255
CAGTCGACATGGACCGGTTTTCCCGGTAATCCGTATTTGGT (site CAGTCGACTAC)	1.13
CAGTCGACATGGACCGGTTTTCCCGGTAATCCGTATTTGGT (site CAGTCGACTCC)	0.0077
CAGTCGACATGGACCGGTTTTCCCGGTAATCCGTATTTGGT (site CAGTCGACTGC)	1.41
CAGTCGACATGGACCGGTTTTCCCGGTAATCCGTATTTGGT (site CAGTCGACTTC)	0.56
CAGTGCTCATGGACCGGTTTTCCCGGTAATCCGTATTTGGT (site CAGTGCTCTAC)	2.49
CAGTTGACATGGACCGGTTTTCCCGGTAATCCGTATTTGGG (site CAGTAGACTCC)	0
CAGTTGACATGGACCGGTTTTCCCGGTAATCCGTATTTGGG (site CAGTCGACTCC)	0.0208
CAGTTGACATGGACCGGTTTTCCCGGTAATCCGTATTTGGG (site CAGTGGACTCC)	0.00569
CAGTTGACATGGACCGGTTTTCCCGGTAATCCGTATTTGGG (site CAGTTGACTCC)	0.53
CATAAAGCATGGACCGGTTTTCCCGGTAATCCGTATTTGAT (site CATAAAGCTAT)	2.1
CATAAAGCATGGACCGGTTTTCCCGGTAATCCGTATTTGAT (site CCTAAAGCTAT)	0.00418
